# Measurements as given in PubChem BioAssay (NCI).
# Where “and” joins values, the source holds several entries; their conditions need not be identical. Equal entries are not always repeated.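 Protocol summary: plate cells (96-well), add compound at 5 concentrations, incubate 48 h, interpolate endpoints linearly. At the GI50, growth is halved. Definition used: TGI = concentration required for complete inhibition of growth.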
# What was measured:
# Experiment in all cases: NCI-60 cell line screen, 48 h
# HOP-62 NSCLC = tested on: HOP-62 NSCLC
# A498 renal = tested on: A498 renal
# K-562 leukemia = tested on: K-562 leukemia
# CAKI-1 renal = tested on: CAKI-1 renal
# MDA-MB-231 breast = tested on: MDA-MB-231 breast
# 786-0 renal = tested on: 786-0 renal
# OVCAR-5 ovarian = tested on: OVCAR-5 ovarian
# PC-3 prostate = tested on: PC-3 prostate
# IGROV1 ovarian = tested on: IGROV1 ovarian
# TK-10 renal = tested on: TK-10 renal
# ACHN renal = tested on: ACHN renal
# CCRF-CEM leukemia = tested on: CCRF-CEM leukemia
# RXF 393 renal = tested on: RXF 393 renal
SMILES,TGI (HOP-62 NSCLC),TGI (A498 renal),TGI (K-562 leukemia),TGI (CAKI-1 renal),TGI (MDA-MB-231 breast) [µM],TGI (786-0 renal),TGI (OVCAR-5 ovarian),TGI (PC-3 prostate) [µM],TGI (IGROV1 ovarian),TGI (TK-10 renal),TGI (ACHN renal),TGI (CCRF-CEM leukemia),TGI (RXF 393 renal),GI50 (HOP-62 NSCLC) [µM],GI50 (RXF 393 renal),GI50 (MDA-MB-231 breast) [µM],GI50 (TK-10 renal) [µM],GI50 (ACHN renal) [µM],GI50 (K-562 leukemia),GI50 (CCRF-CEM leukemia)
CCOC(=O)CCC(NC(=O)c1ccc(N2CCN(c3c(C)nc(N)nc3N)CC2)cc1)C(=O)OCC (stereo not drawn),> 100 µM,> 100 µM,0.844 µM,> 100 µM,> 100,> 100 µM,> 100 µM,> 100,> 100 µM,> 100 µM,> 100 µM,4.9 µM,,,,,,,,
O=C(N/N=C\c1ccc2ccccc2c1)Nc1ccc([N+](=O)[O-])cc1,68.1 µM,,> 100 µM,> 100 µM,> 100,> 62.8 µM,62.9 µM,> 73,> 100 µM,> 55.9 µM,> 63.8 µM,> 100 µM,> 79.2 µM,,,,,,,
C[C@H](O)C1CC(Cn2nnc3c(N)ncnc32)C1(C)C (stereo partly drawn),> 100 µM,> 100 µM,0.0411 µM,> 100 µM,> 100,> 100 µM,> 100 µM,> 100,,> 100 µM,> 100 µM,> 100 µM,> 100 µM,,,,,,,
N#CC1(C#N)NC(c2ccsc2)C(C#N)(C#N)NC1c1ccsc1 (stereo not drawn),> 100 µM,> 100 µM,> 100 µM,> 100 µM,> 100,> 100 µM,> 100 µM,> 100,> 100 µM,> 100 µM,> 100 µM,> 100 µM,,,,,,,,
O=C(CSCC(=O)N/N=C\c1ccc(-c2ccccc2)cc1)N/N=C\c1ccc(-c2ccccc2)cc1,51.9 µM,,> 100 µM,> 100 µM,25.2,> 100 µM,74.8 µM,88.1,29.2 µM,64.2 µM,55.9 µM,,> 100 µM,,,,,,,
COc1ccc2c(c1)c1c(n2CCN2CCCCC2)-c2ccccc2CC1,34.7 µM,,45.9 µM,26.9 µM,31.8,34.5 µM,31.2 µM,30.3,30.3 µM,27.6 µM,33.3 µM,47.4 µM,,,,,,,,
Cn1c2ccccc2c(=NNc2ccc(C(=O)O)cc2)c2ccccc21,56.2 µM,,23.3 µM,63.4 µM,50.1,84.4 µM,48 µM,43.9,95 µM,62.4 µM,45.6 µM,40.5 µM,38 µM,,,,,,,
CCN(CC)C(=S)SS(=O)(=O)c1ccc([N+](=O)[O-])cc1,> 100 µM,> 100 µM,> 100 µM,34.4 µM,66.4,32.4 µM,> 100 µM,,,> 100 µM,> 100 µM,,32.1 µM,32.1,16 µM,25.9,43.1,36.5,,
CCC1C(c2cc(OC)c(OC)c(OC)c2)c2cc3c(cc2OC1N1CCOCC1)OCO3 (stereo not drawn),20.6 µM,,,,61.9,28.8 µM,15.6 µM,14.1,17.4 µM,,16.1 µM,,,,,,,,,
C(=C\C(SCc1ccccc1)SCc1ccccc1)/c1ccccc1,> 10 µM,> 10 µM,> 10 µM,> 10 µM,> 10,> 10 µM,,> 10,> 10 µM,> 10 µM,> 10 µM,> 10 µM,> 10 µM,,,,,,,
CCOC(=O)C(NC(=O)Nc1ccc(Cl)c(Cl)c1)C(F)(F)F (stereo not drawn),,> 100 µM,> 100 µM,,,> 100 µM,> 100 µM,> 100,> 100 µM,> 100 µM,> 100 µM,> 100 µM,> 100 µM,,,,,,,
CC(C)=CCSC1CC2C(CC1(C)O)C2(C)C (stereo not drawn),31.8 µM and 31.2 µM,31.4 µM and 36.2 µM,80.1 µM and 29.6 µM,28.3 µM and 25.5 µM,,29.6 µM and 25.8 µM,28.2 µM and 30.1 µM,,31.3 µM and 33 µM,32.3 µM and 30.8 µM,31 µM and 31.3 µM,> 100 µM and 38.7 µM,11.2 µM and 28.4 µM,,2.01 µM and 14.9 µM,,,,28.2 µM and 10.1 µM,26 µM and 12.8 µM
COC(=O)c1cc(C#Cc2cc(OC)ccc2OC)ccc1OC,,,> 100 µM,> 100 µM,> 100,> 100 µM,> 100 µM,> 100,> 100 µM,> 100 µM,> 100 µM,> 100 µM,84.1 µM,,,,,,,36.8 µM
COc1ccc(CC2NC(=O)/C=C/CC(C(C)C3OC3c3ccccc3)OC(=O)C(CC(C)C)OC(=O)C(C)CNC2=O)cc1Cl (stereo not drawn),> 0.1 µM,3.66e-05 µM,> 0.0416 µM,> 0.1 µM,3.5e-05,> 0.1 µM,> 0.1 µM,> 0.1,,> 0.1 µM,> 0.1 µM,,,,,,,,,
C1=C\CCCCN2C[C@H]3CCCC/C=C\CCCCN4CC[C@@H]([C@H](CCCCCC/1)C4)[C@H](C3)C2,5 µM,17.4 µM,,5.6 µM,3.01,3.16 µM,21.4 µM,14.5,11.3 µM,5.8 µM,4.06 µM,,2.99 µM,,,,,,,
COc1cc2c(c(OC)c1OC)-c1ccc(SC)cc1[C@H](OC(=O)c1ccccc1)CC2,> 100 µM,,> 100 µM,> 100 µM,,> 100 µM,> 100 µM,,> 100 µM,> 100 µM,> 100 µM,> 100 µM,0.452 µM,,,,,,,
Cn1c(-c2cccs2)cc(-c2cccs2)c1-c1ccsc1,> 100 µM,> 100 µM,> 100 µM,> 100 µM,> 100,> 100 µM,> 100 µM,> 100,,> 100 µM,> 100 µM,> 100 µM,> 100 µM,,,,,,,
Cc1cccc(NC(=S)Nc2ccccc2Cl)n1,46.2 µM,64.6 µM,> 100 µM,96.4 µM,,> 100 µM,> 100 µM,> 100,> 100 µM,> 100 µM,,> 100 µM,60 µM,,,,,,,
O=c1[nH]nc(Cc2ccccc2)n1Nc1ccccc1,> 100 µM,> 100 µM,> 100 µM,> 100 µM,> 100,> 100 µM,> 100 µM,> 100,> 100 µM,> 100 µM,> 100 µM,> 100 µM,,,,,,,,
